Laboratory results: US10188612B2, “Pharmaceutical compositions for inhalation” (VECTURA LIMITED, priority 2000, dated 2019)

Test: Standard dissolution test (sintered glass disc over stirred reservoir of deionised water)
Type: physicochemical
Details: FIG. 2
Experimental: The samples were analysed in a Cecil Aquarius CE7200 ultraviolet spectrophotometer at a wavelength of 200 nm. The concentration of the samples was calculated with a previously prepared calibration graph and the concentration versus time was plotted.
The apparatus used is shown in FIG. 1 and comprises a 195 cm^3 reservoir (1) filled with deionised water (2) and having an inlet port (3) and an outlet port (4). A sintered glass disc (5) of approximately 50 mm diameter and 3 mm depth occupies an opening at the top of the reservoir (1) and sits horizontally in contact with the water (2). The water in the reservoir is stirred by a magnetic stirrer (6).
A known mass of approximately 1 mg of the formulation (7) to be tested is placed on the sinter and a timer is started. At various times, 1 cm^3 samples of the water are removed from the reservoir and are immediately replaced with 1 cm^3 deionised water to maintain the volume in the reservoir. The concentration of the active substance in the 1 cm^3 samples is determined by a suitable method.

With `C[N+]1(C)CCC(OC(=O)C(O)(c2ccccc2)C2CCCC2)C1` (centres unmarked) [glycopyrrolate] the “time at which the maximum concentration is achieved” value was 10 min and the “concentration of active substance in the reservoir at the first time point” value (at 5 minutes, UV at 200 nm) was “greater than 10 mg/l”.
